Data as given in PubChem BioAssay (NCI).
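Grown in 96-well plates, cells were treated for 48 hours with each compound at five concentrations. Insufficient inhibition: endpoint recorded as highest concentration tested. Here, GI50 denotes the concentration required for 50% inhibition of growth. TGI marks complete inhibition of growth.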

Key:
Assay in all cases: NCI-60 cell line screen, 48 h
[1] = tested on: MDA-MB-435
[2] = tested on: SNB-75 CNS
[3] = tested on: SK-MEL-5 melanoma
[4] = tested on: ACHN renal
[5] = tested on: NCI-H226 lung
[6] = tested on: U251 CNS
[7] = tested on: HCT-15 colon
[8] = tested on: SR leukemia
[9] = tested on: MDA-MB-231 breast
[10] = tested on: SK-OV-3 ovarian
[11] = tested on: CCRF-CEM leukemia
[12] = tested on: SW-620 colon
[13] = tested on: SN12C renal
[14] = tested on: KM12 colon
[15] = tested on: MOLT-4 leukemia
[16] = tested on: HT29 colon
[17] = tested on: HOP-62 NSCLC
[18] = tested on: RPMI-8226 leukemia
[19] = tested on: SK-MEL-28 melanoma
[20] = tested on: LOX IMVI melanoma
[21] = tested on: UACC-257 melanoma
[22] = tested on: T-47D breast
[23] = tested on: SF-539 CNS
[24] = tested on: BT-549 breast
[25] = tested on: OVCAR-4 ovarian
[26] = tested on: M14 melanoma
[27] = tested on: A549 NSCLC
[28] = tested on: HCC-2998 colon
[29] = tested on: 786-0 renal
[30] = tested on: A498 renal
[31] = tested on: SF-295 CNS
[32] = tested on: K-562 leukemia
[33] = tested on: MCF7 breast
[34] = tested on: SNB-19 CNS
[35] = tested on: NCI-H460 lung
[36] = tested on: NCI-H522 lung
[37] = tested on: CAKI-1 renal
[38] = tested on: COLO 205 colon
[39] = tested on: HCT-116 colon
[40] = tested on: EKVX NSCLC
[41] = tested on: UO-31 renal
[42] = tested on: OVCAR-5 ovarian
[43] = tested on: OVCAR-3 ovarian
[44] = tested on: HOP-92 NSCLC
[45] = tested on: PC-3 prostate
[46] = tested on: UACC-62 melanoma
[47] = tested on: TK-10 renal
[48] = tested on: NCI/ADR-RES ovarian
[49] = tested on: RXF 393 renal
[50] = tested on: IGROV1 ovarian
[51] = tested on: SK-MEL-2 melanoma
[52] = tested on: HL-60(TB) leukemia
[53] = tested on: NCI-H23 lung
[54] = tested on: SF-268 CNS
[55] = tested on: DU-145 prostate
[56] = tested on: OVCAR-8 ovarian
[57] = tested on: HS 578T breast
[58] = tested on: MALME-3M melanoma

Molecule C#C[C@]1(O)CC[C@H]2[C@@H]3CC=C4c5sc(Nc6ccncc6)nc5CC[C@]4(C)[C@H]3CC[C@@]21C has a GI50 [1] of 293 nM, a TGI [1] of 1050 nM and a GI50 [2] of 191 nM. The TGI [2] was 1930 nM, the GI50 [3] was 467 nM and the TGI [3] was 1570 nM. The GI50 [4] was 484 nM, the TGI [4] was 1940 nM and the GI50 [5] was 1620 nM. The TGI [5] was 22500 nM, the GI50 [6] was 103 nM and the TGI [6] was 1160 nM. It also gave a GI50 [7] of 261 nM, a TGI [7] of 1190 nM and a GI50 [8] of 47.2 nM. The TGI [8] was 483 nM, the GI50 [9] was 942 nM and the TGI [9] was 3280 nM. For the same molecule, the GI50 [10] was 268 nM, the TGI [10] was 780 nM and the GI50 [11] was 257 nM. It also gave a TGI [11] of 3750 nM, a GI50 [12] of 284 nM and a TGI [12] of 901 nM. It also gave a GI50 [13] of 745 nM, a TGI [13] of 2110 nM and a GI50 [14] of 387 nM. It also gave a TGI [14] of 1780 nM, a GI50 [15] of 216 nM and a TGI [15] of 997 nM. It also gave a GI50 [16] of 308 nM, a TGI [16] of 1290 nM and a GI50 [17] of 266 nM. For the same molecule, the TGI [17] was 1150 nM, the GI50 [18] was 42 nM and the TGI [18] was 250 nM. The GI50 [19] was 148 nM, the TGI [19] was 394 nM and the GI50 [20] was 200 nM. The TGI [20] was 476 nM, the GI50 [21] was 193 nM and the TGI [21] was 416 nM. It also gave a GI50 [22] of 973 nM, a TGI [22] of 3990 nM and a GI50 [23] of 108 nM. The TGI [23] was 318 nM, the GI50 [24] was 330 nM and the TGI [24] was 1620 nM. For the same molecule, the GI50 [25] was 1360 nM, the TGI [25] was 3190 nM and the GI50 [26] was 182 nM. The TGI [26] was 398 nM, the GI50 [27] was 372 nM and the TGI [27] was 1820 nM. For the same molecule, the GI50 [28] was 1480 nM, the TGI [28] was 2930 nM and the GI50 [29] was 120 nM. It also gave a TGI [29] of 648 nM, a GI50 [30] of 204 nM and a TGI [30] of 517 nM. For the same molecule, the GI50 [31] was 91.2 nM, the TGI [31] was 311 nM and the GI50 [32] was 247 nM. The TGI [32] was 811 nM, the GI50 [33] was 232 nM and the TGI [33] was 1380 nM. For the same molecule, the GI50 [34] was 305 nM, the TGI [34] was 4640 nM and the GI50 [35] was 372 nM. It also gave a TGI [35] of 1400 nM, a GI50 [36] of 740 nM and a TGI [36] of 2220 nM. It also gave a GI50 [37] of 345 nM, a TGI [37] of 1560 nM and a GI50 [38] of 227 nM. The TGI [38] was 494 nM, the GI50 [39] was 309 nM and the TGI [39] was 1200 nM. For the same molecule, the GI50 [40] was 552 nM, the TGI [40] was 3160 nM and the GI50 [41] was 227 nM. It also gave a TGI [41] of 822 nM, a GI50 [42] of 1060 nM and a TGI [42] of 3130 nM. The GI50 [43] was 1480 nM, the TGI [43] was 3660 nM and the GI50 [44] was 312 nM. The TGI [44] was 1330 nM, the GI50 [45] was 243 nM and the TGI [45] was 1350 nM. The GI50 [46] was 223 nM, the TGI [46] was 595 nM and the GI50 [47] was 1010 nM. For the same molecule, the TGI [47] was 2460 nM, the GI50 [48] was 1260 nM and the TGI [48] was 4480 nM. The GI50 [49] was 25.1 nM, the TGI [49] was 110 nM and the GI50 [50] was 531 nM. It also gave a TGI [50] of 2050 nM, a GI50 [51] of 342 nM and a TGI [51] of 1320 nM. The GI50 [52] was 153 nM, the TGI [52] was 1390 nM and the GI50 [53] was 657 nM. For the same molecule, the TGI [53] was 2520 nM, the GI50 [54] was 445 nM and the TGI [54] was 2850 nM. For the same molecule, the GI50 [55] was 1050 nM, the TGI [55] was 3620 nM and the GI50 [56] was 987 nM. It also gave a TGI [56] of 2780 nM, a GI50 [57] of 64.5 nM and a TGI [57] of 580 nM. It also gave a GI50 [58] of 266 nM and a TGI [58] of 994 nM.
